Where a chain is given by its changes, count along the chain named. Like-named read-outs stand apart in the source and are kept apart here.
How the values were obtained:
[1] = biological target: T1, Gal4-hRORγ (Homo sapiens, UniProt P51449); test: Gal4-RORγ mammalian one-hybrid luciferase assay; format: cell-based; conditions: HEK293 cells; for IC50: 18 h treatment, up to 5 μM
T1 construct: Encodes for a hRORγ-LBD:Gal4-DBD fusion protein; expressed in transfected cells; host or cells: HEK293
T1 sequence (P51449 269-508 limits assumed): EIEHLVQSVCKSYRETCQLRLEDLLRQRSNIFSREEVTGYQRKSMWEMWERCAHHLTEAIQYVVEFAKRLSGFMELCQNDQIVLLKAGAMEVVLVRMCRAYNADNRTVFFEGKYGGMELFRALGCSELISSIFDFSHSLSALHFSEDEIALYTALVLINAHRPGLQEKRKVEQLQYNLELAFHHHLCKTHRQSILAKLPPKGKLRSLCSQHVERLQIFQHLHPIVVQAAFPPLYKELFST
Experimental: (§1) For luciferase assays, 8 × 10^6 HEK293 cells were seeded on 150 mm cell culture dishes and incubated for 5 h. Afterward, cells were transfected with the calcium phosphate coprecipitation method using 5 μg of the nuclear receptor (Gal4-hRORγ or full-length human RORγ), 5 μg of a luciferase reporter (pTK-MH100 × 4-LUC for Gal4-hRORγ experiments or RORE-LUC for full-length human RORγ experiments) and 3 μg eGFP-N1 (for assessing transfection efficiency) plasmid DNA and incubated overnight. […] The medium was changed the following day, and cells were further incubated for another four to 5 h before trypsin/EDTA was added to detach them from the dishes. […] RLUs were normalized to relative fluorescence units (RFU) to account for differences in cell number and transfection efficiency and then normalized to the vehicle control. Results are expressed as fold activation relative to the vehicle control.
(§2) Concentration–response data were analyzed in GraphPad Prism version 10 by three-parameter logistic nonlinear regression, with the Hill slope constrained to a theoretical value of −1.0. An IC50 value was determined only for compounds yielding a statistically reliable fit. […] In these cases, only the maximal inhibition achieved at the highest tested concentration (I max(%) at 5 μM) is reported, calculated as follows: Imax(%)=(1−Bottom/Top)×100 (“top” = baseline activity measured at the lowest concentration, “bottom” = residual activity observed at the highest concentration, corresponding to the maximal inhibitory effect).

[2] = system: Il17a and Il17f (Il17a/f); test: RT-qPCR of Il17a and Il17f in EL-4-mRORγt cells; format: cell-based, murine; conditions: then 4.5-h PMA and ionomycin
Experimental: For RT-qPCR assays, 5 × 10^5 EL-4-mRORγt cells were seeded in 500 μL complete DMEM per well of a 24-well plate and treated with the vehicle control, the positive control, or the compounds of interest. After incubation for 20–24 h, cells were stimulated with Cell Activation Cocktail (PMA: 40.5 μM, ionomycin: 669.3 μM; 500X) for 4.5 h. Afterward, total RNA was isolated using the innuPREP RNA Mini Kit 2.0 according to the manufacturer’s instructions. According to the manufacturer’s instructions, 1 μg RNA was reverse-transcribed into cDNA using the High-Capacity cDNA Reverse Transcription Kit. RT-qPCR was performed using the Luna Universal qPCR Master Mix on a LightCycler 480 (Roche Diagnostics, Rotkreuz, Switzerland) according to the manufacturer’s instructions. […] Livak’s 2−ΔΔCt method was employed to determine the expression levels of RORγ target genes. This involved normalizing the target gene expression to the expression levels of the control gene 18s, followed by further normalization to the vehicle control.

[3] = biological target: T2, full-length human RORγ (Homo sapiens, UniProt P51449); test: Full-length RORγ luciferase assay (RORE-LUC reporter); format: cell-based
T2 construct: Encodes for the full-length human RORγ; expressed in transfected cells; host or cells: HEK293
T2 sequence (P51449 1-518): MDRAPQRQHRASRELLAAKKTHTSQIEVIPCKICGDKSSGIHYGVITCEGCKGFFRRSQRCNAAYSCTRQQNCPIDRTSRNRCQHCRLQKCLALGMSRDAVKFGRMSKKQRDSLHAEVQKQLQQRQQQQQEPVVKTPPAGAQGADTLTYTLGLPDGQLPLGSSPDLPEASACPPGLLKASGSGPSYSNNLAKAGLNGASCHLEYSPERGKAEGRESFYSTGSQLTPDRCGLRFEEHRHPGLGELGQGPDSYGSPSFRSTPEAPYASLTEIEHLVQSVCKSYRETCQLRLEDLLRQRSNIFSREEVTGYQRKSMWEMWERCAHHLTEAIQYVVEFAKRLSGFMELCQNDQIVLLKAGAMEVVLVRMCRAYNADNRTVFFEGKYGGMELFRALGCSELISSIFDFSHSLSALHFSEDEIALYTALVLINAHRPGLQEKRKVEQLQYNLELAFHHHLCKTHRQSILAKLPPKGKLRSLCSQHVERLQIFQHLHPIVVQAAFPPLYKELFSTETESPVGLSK
Experimental: as §1, §2

[4] = biological target: T3, hRORγ LBD (Homo sapiens, UniProt P51449); test: Thermal stability by nano differential scanning fluorimetry (nanoDSF); format: binding; conditions: RORγ-LBD with 4 equiv ligand vs without ligand; mean ± SD
T3 construct: His tag (N, cleaved yes); made in house; host or cells: Escherichia coli BL21 DE3
T3 sequence (P51449 264-518): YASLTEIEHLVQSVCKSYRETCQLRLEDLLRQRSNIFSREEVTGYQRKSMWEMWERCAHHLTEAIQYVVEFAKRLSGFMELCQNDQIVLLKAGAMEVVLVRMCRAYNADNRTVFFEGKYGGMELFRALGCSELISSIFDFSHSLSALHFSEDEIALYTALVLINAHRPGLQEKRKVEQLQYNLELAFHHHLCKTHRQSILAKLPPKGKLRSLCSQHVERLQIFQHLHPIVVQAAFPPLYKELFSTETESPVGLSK
Experimental: Soluble proteins were purified on Ni Hitrap FFcrude column (Cytiva), followed by His tag removal by thrombin (MP Biomedicals) cleavage and by size exclusion chromatography on HiLoad Superdex200 column (Cytiva) equilibrated in 20 mM Tris-HCl pH 7.5, 150 mM NaCl, 1 mM TCEP (Hampton Research). Purity and homogeneity of the hRORγ LBD were assessed by SDS-PAGE. The purified protein was concentrated to 0.5–1.0 mg/mL with an Amicon Ultra 10 kDa MWCO. The aliquots of purified LBD were incubated with 4 equiv ligands or vehicle for thermal stability experiments.
Fluorescence-based thermal experiments were performed using a Prometheus NT.48 (NanoTemper Technologies, Germany) with grade standard capillaries containing 10 μL of RORγLBD with different ligands. […] NanoTemper PR. Stability Analysis v1.0.2 was used to fit the data and determine the melting temperatures Tm.

[5] = biological target: T4, Gal4-RORγ H479L (Homo sapiens, UniProt P51449, H479L); test: Gal4-RORγ H479L mutant luciferase assay; conditions: 5 μM
T4 sequence (P51449 269-508 H479L limits assumed): T1 sequence (P51449 269-508 limits assumed) with H211L
Experimental: Gal4-hRORγ H323A and H479L mutants were generated using the QuikChange Lightning Site-Directed Mutagenesis Kit according to the manufacturer’s instructions. Briefly, 10 ng template DNA (Gal4-hRORγ) was PCR-amplified with the respective mutagenic forward and reverse primers listed in Table S3, which were designed using the QuikChange Primer Design tool (https://www.agilent.com/store/primerDesignProgram.jsp). […] Two μL of the PCR product were then transformed into XL1-Blue competent E. coli according to a protocol provided by NEB. […] After centrifuging the main culture at 5691g for 10 min, the supernatant was decanted, and plasmid preparation was performed using the PureLink HiPure Plasmid Midiprep Kit according to the manufacturer’s instructions. DNA yields and purities were checked using a NanoDrop 2000c (Thermo Fisher Scientific, Waltham, MA, USA).

[6] = system: RORγ; parameters: method as in numbers not given; conditions: Figure 4, collected from the literature; ref numbers not given; cited from earlier work
[7] = pretreated 20–24 h at indicated concentrations

For COc1ccc(CC(=O)Nc2cc3oc4ccccc4c3cc2OC)cc1 [Compound 5], the “Activity in Gal4-RORγ luciferase assay (initial screen)” value ([1]; 3 μM) was “agonistic activity”.

For C=C(C)[C@@H]1CC[C@]2(C(=O)O)CC[C@]3(C)[C@H](CC[C@@H]4[C@@]5(C)C/C(=C/c6ccccc6)C(=O)C(C)(C)[C@@H]5CC[C@]43C)[C@@H]12 [Compound 15.3], the Il17a/f expression [2, 7] was “significant and concentration-dependent reduction”, the “Imax(%) at 5 μM, full-length RORγ luciferase assay” value ([3]; HEK293 cells) was 67% and the IC50 ([3]; HEK293 cells, 18 h treatment, up to 5 μM, read-out: IC50, full-length RORγ luciferase assay) was greater than 5 µM. The IC50 ([3]; exceeds the highest concentration tested, only an estimate, read-out: Estimated IC50, full-length RORγ luciferase assay) was 5.7 µM, the “ΔTm measured with nano differential scanning fluorimetry” value [4] was 2.8 ± 0.2 °C and the “Imax(%) at 5 μM, Gal4-RORγ luciferase assay” value [1] was 53%. The IC50 [1] was 2700 nM and the “Activity on Gal4-RORγ H479L vs WT” value [5] was “loss of activity”.

With C=C(C)[C@@H]1CC[C@]2(C(=O)O)CC[C@]3(C)[C@H](CC[C@@H]4[C@@]5(C)C/C(=C/c6cccc(I)c6)C(=O)C(C)(C)[C@@H]5CC[C@]43C)[C@@H]12 [Compound 15.2] the Il17a/f expression [2, 7] was “significant and concentration-dependent reduction”, the “Imax(%) at 5 μM, full-length RORγ luciferase assay” value ([3]; HEK293 cells) was 55% and the “ΔTm measured with nano differential scanning fluorimetry” value [4] was 2.2 ± 0.5 °C. The “Imax(%) at 5 μM, Gal4-RORγ luciferase assay” value [1] was 58%, the IC50 [1] was 3100 nM and the “Activity on Gal4-RORγ H479L vs WT” value [5] was “loss of activity”.

In the case of CC(C)CCC[C@H](CCCC(C)(C)O)[C@H]1CC[C@H]2[C@@H]3CC=C4C[C@@H](O)CC[C@]4(C)[C@H]3CC[C@]12C [Gemini-cholesterol analogue], the “RORγ inverse agonist or agonist” value [6] is given as “Inverse agonist”.

In the case of C[C@H]1[C@H](C)CC[C@]2(C(=O)O)CC[C@]3(C)C(=CC[C@@H]4[C@@]5(C)CC[C@H](O)C(C)(C)[C@@H]5CC[C@]43C)[C@H]12 [Ursolic acid], the “RORγ inverse agonist or agonist” value [6] is given as “Inverse agonist”.

In the case of OC(c1ccc(-c2ccc(CN3CCN(Cc4ccncc4)CC3)cc2)c(F)c1)(C(F)(F)F)C(F)(F)F [SR2211, reference compound], the Il17a/f expression ([2]; 5 μM, 20–24 h) is reported as “significant and reproducible down-regulation”.

In the case of C=C(C)[C@@H]1CC[C@]2(C(=O)NCCCN(C)C)CC[C@]3(C)[C@H](CC[C@@H]4[C@@]5(C)CC[C@H](O)C(C)(C)[C@@H]5CC[C@]43C)[C@@H]12 [Compound 24], the “RORγ inverse agonist or agonist” value [6] is given as “Inverse agonist”.

In the case of C=C(C)[C@@H]1CC[C@]2(C=O)CC[C@]3(C)[C@H](CC[C@@H]4[C@@]5(C)CC[C@H](O)C(C)(C)[C@@H]5CC[C@]43C)[C@@H]12 [Betulinaldehyde], the “RORγ inverse agonist or agonist” value [6] is listed as “Agonist”.

In the case of C=C(C)[C@@H]1CC[C@]2(C(=O)O)CC[C@]3(C)[C@H](CC[C@@H]4[C@@]5(C)C/C(=C\c6ccccc6OC)C(=O)C(C)(C)[C@@H]5CC[C@]43C)[C@@H]12 [Compound 15.1], the Il17a/f expression [2, 7] is reported as “inactive”, the “Imax(%) at 5 μM, full-length RORγ luciferase assay” value ([3]; HEK293 cells) is reported as 24% and the “ΔTm measured with nano differential scanning fluorimetry” value [4] is reported as 5.9 ± 0.4 °C. For the same compound, the “Imax(%) at 5 μM, Gal4-RORγ luciferase assay” value [1] was 34%.

For CC(C)=CCC[C@H](C)[C@H]1CC[C@H]2C3=C(CC[C@]12C)[C@@]1(C)CC[C@H](O)[C@@](C)(C(=O)O)C1CC3 (stereo partly drawn) [4α-carboxy-4β-methyl-zymosterol], the “RORγ inverse agonist or agonist” value [6] is given as “Agonist”.

In the case of C[C@H]1[C@H](C)CC[C@]2(C(=O)O)CC[C@]3(C)C(=CC[C@@H]4[C@@]5(C)CCC(=O)C(C)(C)[C@@H]5CC[C@]43C)[C@H]12 [Ursonic acid], the “RORγ inverse agonist or agonist” value [6] is given as “Inverse agonist”.

In the case of C[C@@H]1CC[C@@]2(OC1)O[C@H]1C[C@H]3[C@@H]4CC=C5C[C@@H](O)CC[C@]5(C)[C@H]4CC[C@]3(C)[C@H]1[C@@H]2C [Diosgenin], the “RORγ inverse agonist or agonist” value [6] is listed as “Inverse agonist”.

With C=C(C)[C@@H]1CC[C@]2(C(=O)OC)CC[C@]3(C)[C@H](CC[C@@H]4[C@@]5(C)C/C(=C/c6ccco6)C(=O)C(C)(C)[C@@H]5CC[C@]43C)[C@@H]12 [Compound 15.4] the Il17a/f expression [2, 7] was “slightly but significantly up-regulated”, the “Imax(%) at 5 μM, full-length RORγ luciferase assay” value ([3]; HEK293 cells) was 0% and the “ΔTm measured with nano differential scanning fluorimetry” value [4] was 1.1 ± 0.2 °C. For the same compound, the “Imax(%) at 5 μM, Gal4-RORγ luciferase assay” value [1] was 0% and the “Activity on Gal4-RORγ H479L vs WT” value [5] was “remained inactive”.

In the case of C=C1C[C@]2(C)[C@H]3CC[C@@H]4[C@H]5[C@H](C(=C)C)CC[C@]5(C(=O)NCCCN(C)C)CC[C@@]4(C)[C@]3(C)CC[C@H]2C(C)(C)C1=O [Compound 25], the “RORγ inverse agonist or agonist” value [6] is listed as “Inverse agonist”.
